ChEMBL document CHEMBL4406898, “Dual mode of binding of anti cancer drug epirubicin to G-quadruplex [d-(TTAGGGT)]4 containing human telomeric DNA sequence induces thermal stabilization” (Bioorg Med Chem, 2019)
Active and inactive are the calls of the source. No cut-off for these calls is given here.

Experiments:
[1] = molecular target: Albumin (Homo sapiens, UniProt P02768); assay: Binding affinity to human serum albumin assessed as binding constant after 24 hrs by absorption spectroscopy; format: ADME; details: isolated protein
[2] = system: Quadruplex DNA; assay: Binding affinity to human telomeric 7 G-quadruplex DNA assessed as binding constant Kb2; format: nucleic-acid assay
[3] = system: Quadruplex DNA; assay: Binding affinity to human telomeric 7 G-quadruplex DNA assessed as binding constant Kb1; format: nucleic-acid assay
[4] = system: Quadruplex DNA; assay: Binding affinity to human telomeric 7 G-quadruplex DNA assessed as delta Tm1 compound:DNA ratio of 2:0 by CD spectroscopy analysis; format: nucleic-acid assay
[5] = system: Quadruplex DNA; assay: Binding affinity to human telomeric 7 G-quadruplex DNA assessed as binding constant Kb2 at 591 nanometer by spectrofluorimetric analysis; format: nucleic-acid assay
[6] = system: Quadruplex DNA; assay: Binding affinity to human telomeric 7 G-quadruplex DNA at compound:DNA ratio of 2.3 to 6.1 by spectrofluorimetric analysis; format: nucleic-acid assay
[7] = system: Quadruplex DNA; assay: Binding affinity to human telomeric 7 G-quadruplex DNA assessed as binding constant Kb2 in water by fluorescence spectral analysis; format: nucleic-acid assay
[8] = system: Quadruplex DNA; assay: Binding affinity to human telomeric 7 G-quadruplex DNA assessed as stern-volmer quenching constant in compound:DNA ratio of 0.4 to 1.0 by spectrofluorimetric analysis; format: nucleic-acid assay
[9] = system: Quadruplex DNA; assay: Binding affinity to human telomeric 7 G-quadruplex DNA assessed as fluorescence quenching at 7 uM by fluorescence spectral analysis; format: nucleic-acid assay
[10] = system: Quadruplex DNA; assay: Binding affinity to human telomeric 7 G-quadruplex DNA assessed as delta Tm2 compound:DNA ratio of 2:0 by CD spectroscopy analysis; format: nucleic-acid assay
[11] = system: Quadruplex DNA; assay: Binding affinity to human telomeric 7 G-quadruplex DNA assessed as melting temperature Tm3 compound:DNA ratio of 0:5 by CD spectroscopy analysis; format: nucleic-acid assay
[12] = system: Quadruplex DNA; assay: Binding affinity to human telomeric 7 G-quadruplex DNA assessed as red shift in emission wavelength at 7 uM measured at 591 nanometer by fluorescence spectral analysis; format: nucleic-acid assay
[13] = system: Quadruplex DNA; assay: Binding affinity to human telomeric 7 G-quadruplex DNA assessed as binding constant Kb1 in water by fluorescence spectral analysis; format: nucleic-acid assay
[14] = system: Quadruplex DNA; assay: Binding affinity to human telomeric 7 G-quadruplex DNA assessed as drug-DNA complex stoichiometry ratio of 1:1 at 7 uM by absorption spectroscopy; format: nucleic-acid assay
[15] = system: Quadruplex DNA; assay: Effect on parallel topology of human telomeric 7 G-quadruplex DNA assessed as reduction in negative band ellipticity at compound:DNA ratio of 4:0 by CD spectroscopy relative to control; format: nucleic-acid assay; set-up: scale not given: the % may be the effect or the level left
[16] = system: Quadruplex DNA; assay: Binding affinity to human telomeric 7 G-quadruplex DNA assessed as hypochromic red shift at 7 uM in presence of water by fluorescence spectral analysis; format: nucleic-acid assay
[17] = Self aggregation behaviour in phosphate buffer solution assessed as effect on absorption spectra at >10 uM by absorption spectroscopy; format: physicochemical
[18] = system: Quadruplex DNA; assay: Binding affinity to human telomeric 7 G-quadruplex DNA assessed as fluorescence quenching at 7 uM in presence of 100 to 150 mM K+ ion by fluorescence spectral analysis relative to control; format: nucleic-acid assay
[19] = system: Quadruplex DNA; assay: Binding affinity to human telomeric 7 G-quadruplex DNA assessed as red shift in emission wavelength at 7 uM measured at 559.5 nanometer by fluorescence spectral analysis; format: nucleic-acid assay
[20] = system: Quadruplex DNA; assay: Binding affinity to human telomeric 7 G-quadruplex DNA assessed as hypochromic red shift at 7 uM in presence of 100 mM NaCl by fluorescence spectral analysis; format: nucleic-acid assay
[21] = system: Quadruplex DNA; assay: Binding affinity to human telomeric 7 G-quadruplex DNA assessed as melting temperature compound:DNA ratio of 1:0 by CD spectroscopy analysis; format: nucleic-acid assay
[22] = system: Quadruplex DNA; assay: Effect on parallel topology of human telomeric 7 G-quadruplex DNA assessed as reduction in negative band ellipticity at compound:DNA ratio of 3:0 by CD spectroscopy relative to control; format: nucleic-acid assay; set-up: scale not given: the % may be the effect or the level left
[23] = system: Quadruplex DNA; assay: Binding affinity to human telomeric 7 G-quadruplex DNA assessed as hypochromic red shift at 7 uM by absorption spectroscopy relative to untreated control; format: nucleic-acid assay
[24] = system: Quadruplex DNA; assay: Binding affinity to human telomeric 7 G-quadruplex DNA assessed as fluorescence quenching at 7 uM measured at 559.5 nanometer by fluorescence spectral analysis relative to control; format: nucleic-acid assay
[25] = system: Quadruplex DNA; assay: Binding affinity to human telomeric 7 G-quadruplex DNA at compound:DNA ratio of 0.4 to 1.0 by spectrofluorimetric analysis; format: nucleic-acid assay
[26] = system: Quadruplex DNA; assay: Binding affinity to human telomeric 7 G-quadruplex DNA by CD spectroscopy; format: nucleic-acid assay
[27] = system: Quadruplex DNA; assay: Binding affinity to human telomeric 7 G-quadruplex DNA assessed as hypochromic red shift at 7 uM in presence of 100 to 150 mM K+ ion by fluorescence spectral analysis; format: nucleic-acid assay
[28] = system: Quadruplex DNA; assay: Binding affinity to human telomeric 7 G-quadruplex DNA assessed as binding constant Kb1 in absence of KCl by fluorescence spectral analysis; format: nucleic-acid assay
[29] = system: Quadruplex DNA; assay: Binding affinity to human telomeric 7 G-quadruplex DNA assessed as binding constant Kb1 at 559.5 nanometer by spectrofluorimetric analysis; format: nucleic-acid assay
[30] = system: Quadruplex DNA; assay: Binding affinity to human telomeric 7 G-quadruplex DNA assessed as fluorescence quenching at 7 uM in presence of water by fluorescence spectral analysis relative to control; format: nucleic-acid assay
[31] = system: Quadruplex DNA; assay: Binding affinity to human telomeric 7 G-quadruplex DNA assessed as melting temperature compound:DNA ratio of 2:0 to 4:0 by CD spectroscopy analysis; format: nucleic-acid assay
[32] = system: Quadruplex DNA; assay: Binding affinity to human telomeric 7 G-quadruplex DNA assessed as stern-volmer quenching constant in compound:DNA ratio of 1.2 to 3.8 by spectrofluorimetric analysis; format: nucleic-acid assay
[33] = system: Quadruplex DNA; assay: Binding affinity to human telomeric 7 G-quadruplex DNA assessed as binding constant Kb2 in 150 mM of KCl by fluorescence spectral analysis; format: nucleic-acid assay
[34] = system: Quadruplex DNA; assay: Binding affinity to human telomeric 7 G-quadruplex DNA assessed as melting temperature Tm1 compound:DNA ratio of 2:0 by CD spectroscopy analysis (reference value: 58.8 +/- 0.4 degreeC); format: nucleic-acid assay
[35] = system: Tetrahymena thermophila; assay: Binding affinity to Tetrahymena thermophila telomeric 22 G-quadruplex DNA assessed as binding constant Kb2
[36] = system: Quadruplex DNA; assay: Binding affinity to human telomeric 7 G-quadruplex DNA assessed as change in melting temperature compound:DNA ratio of 2:0 by CD spectroscopy analysis; format: nucleic-acid assay
[37] = system: Quadruplex DNA; assay: Binding affinity to human telomeric 7 G-quadruplex DNA assessed as fluorescence quenching at 7 uM in presence of 100 mM NaCl by fluorescence spectral analysis relative to control; format: nucleic-acid assay
[38] = system: Quadruplex DNA; assay: Binding affinity to human telomeric 7 G-quadruplex DNA assessed as binding constant Kb2 in 50 mM of KCl by fluorescence spectral analysis; format: nucleic-acid assay
[39] = system: Quadruplex DNA; assay: Binding affinity to human telomeric 7 G-quadruplex DNA assessed as quenching constant by spectrofluorimetric analysis; format: nucleic-acid assay
[40] = system: Quadruplex DNA; assay: Binding affinity to human telomeric 7 G-quadruplex DNA assessed as melting temperature Tm2 compound:DNA ratio of 2:0 by CD spectroscopy analysis (reference value: 64.3 +/- 0.2 degreeC); format: nucleic-acid assay
[41] = system: Quadruplex DNA; assay: Binding affinity to human telomeric 7 G-quadruplex DNA assessed as binding constant Kb2 in 100 mM KCl by fluorescence spectral analysis; format: nucleic-acid assay
[42] = system: Quadruplex DNA; assay: Binding affinity to human telomeric 7 G-quadruplex DNA assessed as drug-DNA complex stoichiometry ratio of 2:1 at 7 uM by absorption spectroscopy; format: nucleic-acid assay
[43] = system: Quadruplex DNA; assay: Binding affinity to human telomeric 7 G-quadruplex DNA incubated for 5 mins by UV-visible spectrophotometric analysis; format: nucleic-acid assay
[44] = system: Quadruplex DNA; assay: Binding affinity to human telomeric 7 G-quadruplex DNA assessed as binding constant Kb1 at 591 nanometer by spectrofluorimetric analysis; format: nucleic-acid assay
[45] = system: Quadruplex DNA; assay: Binding affinity to human telomeric 7 G-quadruplex DNA assessed as binding constant Kb2 in 100 mM NaCl by fluorescence spectral analysis; format: nucleic-acid assay
[46] = system: Quadruplex DNA; assay: Binding affinity to human telomeric 7 G-quadruplex DNA assessed as binding constant Kb1 in 100 mM KCl by fluorescence spectral analysis; format: nucleic-acid assay
[47] = system: Quadruplex DNA; assay: Effect on parallel topology of human telomeric 7 G-quadruplex DNA assessed as reduction in […] band ellipticity at 264 nm at compound:DNA ratio of 4:0 by CD spectroscopy relative to control; format: nucleic-acid assay; set-up: scale not given: the % may be the effect or the level left
[48] = system: Quadruplex DNA; assay: Binding affinity to human telomeric 7 G-quadruplex DNA assessed as binding constant Kb2 in absence of KCl by fluorescence spectral analysis; format: nucleic-acid assay
[49] = system: Quadruplex DNA; assay: Binding affinity to human telomeric 7 G-quadruplex DNA assessed as binding constant Kb1 in 100 mM NaCl by fluorescence spectral analysis; format: nucleic-acid assay
[50] = system: Tetrahymena thermophila; assay: Binding affinity to Tetrahymena thermophila telomeric 22 G-quadruplex DNA assessed as binding constant Kb1
[51] = system: Quadruplex DNA; assay: Binding affinity to human telomeric 7 G-quadruplex DNA assessed as binding constant Kb2 at 559.5 nanometer by spectrofluorimetric analysis; format: nucleic-acid assay
[52] = system: Quadruplex DNA; assay: Binding affinity to human telomeric 7 G-quadruplex DNA assessed as fluorescence quenching at 7 uM measured at 591 nanometer by fluorescence spectral analysis relative to control; format: nucleic-acid assay
[53] = system: Quadruplex DNA; assay: Binding affinity to human telomeric 7 G-quadruplex DNA assessed as melting temperature Tm1 compound:DNA ratio of 0:5 by CD spectroscopy analysis (reference value: 58.8 +/- 0.4 degreeC); format: nucleic-acid assay
[54] = system: Quadruplex DNA; assay: Binding affinity to human telomeric 22 G-quadruplex DNA assessed as binding constant in presence of NaCl by CD spectroscopy analysis; format: nucleic-acid assay
[55] = system: Quadruplex DNA; assay: Binding affinity to human telomeric 7 G-quadruplex DNA assessed as delta Tm1 compound:DNA ratio of 0:5 by CD spectroscopy analysis; format: nucleic-acid assay
[56] = system: Quadruplex DNA; assay: Binding affinity to human telomeric 7 G-quadruplex DNA assessed as delta Tm3 compound:DNA ratio of 2:0 by CD spectroscopy analysis; format: nucleic-acid assay
[57] = system: Quadruplex DNA; assay: Binding affinity to human telomeric 22 G-quadruplex DNA assessed as binding constant in presence of KCl by CD spectroscopy analysis; format: nucleic-acid assay
[58] = system: Quadruplex DNA; assay: Binding affinity to human telomeric 7 G-quadruplex DNA assessed as hypochromic red shift by measuring difference in maximum absorption at 7 uM by absorption spectroscopy; format: nucleic-acid assay
[59] = system: Quadruplex DNA; assay: Binding affinity to human telomeric 7 G-quadruplex DNA assessed as binding constant Kb1 in 50 mM of KCl by fluorescence spectral analysis; format: nucleic-acid assay
[60] = system: Quadruplex DNA; assay: Binding affinity to human telomeric 7 G-quadruplex DNA assessed as binding constant Kb1 in 150 mM of KCl by fluorescence spectral analysis; format: nucleic-acid assay

Sequence of Albumin (P02768 whole entry): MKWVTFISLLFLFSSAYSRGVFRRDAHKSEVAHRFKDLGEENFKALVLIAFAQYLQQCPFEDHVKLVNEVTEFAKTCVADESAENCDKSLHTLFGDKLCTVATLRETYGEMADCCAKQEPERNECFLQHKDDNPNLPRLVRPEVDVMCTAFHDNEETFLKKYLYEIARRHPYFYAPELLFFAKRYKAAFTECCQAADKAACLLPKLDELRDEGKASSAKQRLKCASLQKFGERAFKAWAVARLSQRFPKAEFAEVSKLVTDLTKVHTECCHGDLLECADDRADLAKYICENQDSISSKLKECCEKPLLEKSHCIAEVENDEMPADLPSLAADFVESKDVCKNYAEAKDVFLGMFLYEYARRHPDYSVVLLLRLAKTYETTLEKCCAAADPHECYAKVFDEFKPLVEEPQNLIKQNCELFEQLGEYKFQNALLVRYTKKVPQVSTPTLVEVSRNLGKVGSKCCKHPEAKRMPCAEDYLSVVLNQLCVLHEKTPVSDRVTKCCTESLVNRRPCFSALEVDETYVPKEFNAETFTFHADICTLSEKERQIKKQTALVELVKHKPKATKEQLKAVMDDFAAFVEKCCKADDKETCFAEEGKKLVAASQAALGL

## COc1cccc2c1C(=O)c1c(O)c3c(c(O)c1C2=O)C[C@@](O)(C(=O)CO)C[C@@H]3O[C@H]1C[C@H](N)[C@H](O)[C@H](C)O1.Cl [DOXORUBICIN HYDROCHLORIDE]
[1]
  Kb: 3 ×10³ /M
[2]
  Kb: 0.6 ×10⁶ /M
[3]
  Kb: 1.1 ×10⁶ /M

## COc1cccc2c1C(=O)c1c(O)c3c(c(O)c1C2=O)C[C@@](O)(C(=O)CO)C[C@@H]3O[C@H]1C[C@H](N)[C@@H](O)[C@H](C)O1 [EPIRUBICIN]
[4]
  ΔTm: 11.6 °C
[5]
  Kb: 3.8 ×10⁶ /M
[6]
  Kb: 4.6 ×10⁵ /M
[7]
  Kb: 53 ×10⁴ /M
[8]
  KSV: 4.1 ×10⁵ /M
[9]
  Activity: Active
[10]
  ΔTm: 13.2 °C
[11]
  Tm: 90.6 °C
[12]
  deltaA: 16 nm
[13]
  Kb: 8.4 ×10⁴ /M
[14]
  Activity: Active
[15]
  Activity: 59%
[16]
  deltaA: 0.5 nm
[17]
  Activity: Active
[18]
  Activity: 89%
[19]
  deltaA: 8 nm
[20]
  deltaA: 1 nm
[21]
  Tm: 65 °C
[22]
  Activity: 90%
[23]
  Activity: 47.6%
[24]
  Activity: 93%
[25]
  Kb: 2 ×10⁶ /M
[26]
  Kb: 1.9 ×10⁶ /M
[27]
  deltaA: 8 to 16 nm
[28]
  Kb: 1.8 ×10⁴ /M
[29]
  Kb: 2 ×10⁶ /M
[30]
  Activity: 60%
[31]
  Tm: 70 °C
[32]
  KSV: 1.1 ×10⁶ /M
[33]
  Kb: 4.6 ×10⁶ /M
[34]
  Tm: 70.4 °C
[35]
  Kb: 2.3 ×10⁵ /M
[36]
  ΔTm: 15 °C
[37]
  Activity: 39%
[38]
  Kb: 3.8 ×10⁶ /M
[39]
  Kq: 7.5 ×10¹⁴ /M/s
[40]
  Tm: 77.5 °C
[41]
  Kb: 4 ×10⁶ /M
[42]
  Activity: Active
[43]
  Kb: 2.3 ×10⁶ /M
[44]
  Kb: 2.7 ×10⁶ /M
[45]
  Kb: 7.3 ×10⁴ /M
[46]
  Kb: 2.3 ×10⁶ /M
[47]
  Activity: 18%
[48]
  Kb: 0.24 ×10⁴ /M
[49]
  Kb: 3.5 ×10⁴ /M
[50]
  Kb: 1.9 ×10⁶ /M
[51]
  Kb: 4.6 ×10⁵ /M
[52]
  Activity: 92%
[53]
  Tm: 68.1 °C
[54]
  Kb: 2.5 ×10⁴ /M
[55]
  ΔTm: 9.3 °C
[56]
  ΔTm: 26.3 °C
[57]
  Kb: 3 to 3.6 ×10⁵ /M
[58]
  deltaA: 9 nm
[59]
  Kb: 2.7 ×10⁶ /M
[60]
  Kb: 1.3 to 1.9 ×10⁶ /M
